Drawing on patent publication US12421249B2, “Inhibitors of APOL1 and methods of using same” (Vertex Pharmaceuticals Incorporated, priority 2020, dated 2025), this text covers IC90, Emax and IC50 for 25 compounds.

The test has as its target T1, APOL1 G1 (Homo sapiens, UniProt O14791, I384M/S342G).
T1 sequence (O14791 28-398 S342G/I384M): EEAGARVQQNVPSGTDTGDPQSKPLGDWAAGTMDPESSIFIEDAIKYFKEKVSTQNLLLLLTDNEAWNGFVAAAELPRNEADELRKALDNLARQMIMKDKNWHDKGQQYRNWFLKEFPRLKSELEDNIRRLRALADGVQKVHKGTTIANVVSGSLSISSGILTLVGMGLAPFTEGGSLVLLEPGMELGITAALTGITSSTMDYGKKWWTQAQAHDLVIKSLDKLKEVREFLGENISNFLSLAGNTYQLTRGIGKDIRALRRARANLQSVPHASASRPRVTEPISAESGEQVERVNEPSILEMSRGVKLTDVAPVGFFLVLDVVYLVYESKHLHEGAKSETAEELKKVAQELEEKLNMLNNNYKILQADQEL
Nature of the test: MultiTox-Fluor Multiplex Cytotoxicity Assay in tet-inducible APOL1 G1 T-REx-HEK293 cells (clone G1 DC3.25). The format is cell-based. Further details: expressed in transfected cells; host or cells: T-REx HEK293, pAAVS1-Puro-APOL1 G1, clone G1 DC3.25. Conditions: Multi-Tox Assay, APOL1 variant cell line not given; for Emax: read-out: Multi-Tox Assay Max Activity (%); for IC50: IP50 = IC50 for cell proliferation. On the procedure: The MultiTox-Fluor Multiplex Cytotoxicity Assay is a single-reagent-addition, homogeneous, fluorescence assay that measures the number of live and dead cells simultaneously in culture wells. The assay measures cell viability and cytotoxicity by detecting two distinct protease activities. The live-cell protease activity is restricted to intact viable cells and is measured using a fluorogenic, cell-permeant peptide glycyl-phenylalanylamino fluorocoumarin (GF-AFC) substrate. The substrate enters intact cells, where it is cleaved to generate a fluorescent signal proportional to the number of living cells. […] A second, cell-impermeant, fluorogenic peptide substrate (bis-AAF-R110 Substrate) is used to measure dead-cell protease that has been released from cells that have lost membrane integrity. A ratio of dead to live cells is used to normalize data.
Briefly, the tet-inducible transgenic APOL1 T-REx-HEK293 cell lines were incubated with 50 ng/mL tet to induce APOL1 in the presence of 3-(2-(4-fluorophenyl)-1H-indol-3-yl)-N-((3S,4R)-4-hydroxy-2-oxopyrrolidin-3-yl)propenamide at […], 0.0045, 0.0015, 0.0005 μM in duplicate for 24 hours in a humidified 37° C. incubator. The MultiTox reagent was added to each well and placed back in the incubator for an additional 30 minutes. The plate was read on the EnVision plate reader. A ratio of dead to live cells was used to normalize, and data was imported, analyzed and fit using Genedata Screener (Basel, Switzerland) software. Data was normalized using percent of control, no tet (100% viability), and 50 ng/mL tet treated (0% viability), and fit using Smart Fit. The reagents, methods, and complete protocol for the MultiTox assay are described below.
Human embryonic kidney (HEK293) cell lines containing a tet-inducible expression system (T-REx™; Invitrogen, Carlsbad, CA) and Adeno-associated virus site 1 pAAVS1-Puro-APOL1 G0 or pAAVS1-Puro-APOL1 G1 or pAAVS1-Puro-APOL1 G2 Clones G0 DC2.13, G1 DC3.25, and G2 DC4.44 were grown in a T-225 flask at ˜90% confluency in cell growth media (DMEM, 10% Tet-free FBS, 2 mM L-glutamine, 100 Units/mL penicillin-streptomycin, 5 μg/mL blasticidin S HCl, 1 μg/mL puromycin dihydrochloride). Cells were washed with DPBS and then trypsinized to dissociate from the flask. Media was used to quench the trypsin, cells were then pelleted at 200 g and resuspended in fresh cell assay media (DMEM, 2% Tet-free FBS, 2 mM L-glutamine, 100 Units/mL penicillin-streptomycin). Cells were counted and diluted to 1.17×10^6 cells/mL. 20 μL of cells (23,400/well) were dispensed to every well of a 384-well Poly-D-Lysine coated plate using the Multidrop dispenser. The plates were then incubated at room temperature for one hour.
Tetracycline is needed to induce APOL1 expression. 1 mg/mL tet stock in water was diluted to 250 ng/mL (5×) in cell assay media. 60 μL of cell assay media (no tet control) was dispensed in columns 1 and 24, and 60 μL of 5× tet was dispensed in 384-PP-round bottom plate in columns 2 to 23 with the Multidrop dispenser.
Assay ready plates from the Global Compound Archive were ordered using template 384_APOL1Cell_DR10n2_50 μM_v3. Compounds were dispensed at 200 nL in DMSO. The final top concentration was 10 μM with a 10 point 3-fold dilution in duplicate in the MultiTox assay.
20 μL were transferred from the 5× tet plate to the ARP and mixed, then 5 μL of 5× tet and the compounds were transferred to the cell plate and mixed using the Bravo. The cell plate was placed in the humidified 37° C. 5% CO2 incubator for 24 hours.
The MultiTox-Fluor Multiplex Cytotoxicity Assay was performed in accordance with the manufacturer's protocol. After cells were incubated with tet and compound for 24 hours, 25 μL of 1× MultiTox reagent was added to each well using the Multidrop dispenser; the plates were placed on a plate shaker (600 rpm) for 2 minutes, then centrifuged briefly and placed back in the 37° C. incubator for 30 minutes. […]

On to `COCC1([C@@H]2C[C@]3(C[C@H](C)N2)OCCc2cc(Cl)sc23)CC1` (racemic) [Compound 376], for which the 90% effect concentration (IC90) fell in the range of 50 to 500 nM, the Emax was 99% and the IC50 was 50 to 500 nM.

Turning to `C[C@H]1C[C@@]2(C[C@@H](C3(C#N)CC3)N1)OCCc1cc(Cl)sc12` (racemic) [Compound 377], the IC90 was more than 500 nM, the Emax was found to be 98% and the IC50 is 50 to 500 nM.

With `C[C@H]1C[C@@]2(C[C@@H](C3(N(C)C)CC3)N1)OCCc1cc(Cl)sc12` (racemic) [Compound 378], the IC90 lay within 50 to 500 nM, the Emax was 99% and the IC50 is less than 50 nM.

With `CCOC(=O)C1CC1[C@@H]1C[C@]2(C[C@H](C)N1)OCCc1cc(Cl)sc12` (stereo in doubt) [Compound 374], the IC90 was in the range of 50 to 500 nM, the Emax came out at 99% and the IC50 was less than 50 nM.

`CCOC(=O)C1CC1[C@@H]1C[C@]2(C[C@H](C)N1)OCCc1cc(Cl)sc12` (stereo in doubt) [Compound 375] showed an IC90 of 50 to 500 nM and an IC50 of less than 50 nM.

In the case of `C[C@H]1C[C@@]2(C[C@@H](c3cn(CCO)nn3)N1)OCC(F)(F)c1cc(Cl)sc12` [Compound 361], the Emax is 98% and the IC50 was less than 50 nM.

As for `COc1ccc(Cn2cc([C@@H]3C[C@]4(C[C@H](C)N3)OCC(F)(F)c3cc(Cl)sc34)nn2)cc1F` [Compound 362], the Emax came to 98%.

As for `C[C@H]1C[C@@]2(C[C@@H](c3cn(C[C@@H](O)CO)nn3)N1)OCC(F)(F)c1cc(Cl)sc12` [Compound 363], the Emax came out at 99% and the IC50 was less than 50 nM.

Turning to `C[C@H]1C[C@@]2(C[C@@H](c3cn(CC(C)(C)O)nn3)N1)OCC(F)(F)c1cc(Cl)sc12` [Compound 364], the Emax was determined as 95%.

With `C[C@H]1C[C@@]2(C[C@@H](c3cn(Cc4cncs4)nn3)N1)OCC(F)(F)c1cc(Cl)sc12` [Compound 365], the Emax amounted to 99% and the IC50 is less than 50 nM.

In the case of `C[C@H]1C[C@@]2(C[C@@H](c3cn(Cc4ccc5nc(O)[nH]c5c4)nn3)N1)OCC(F)(F)c1cc(Cl)sc12` [Compound 366], the Emax came to 95%.

Take `C[C@H]1C[C@@]2(C[C@@H](c3cn(CCC(C)(C)O)nn3)N1)OCC(F)(F)c1cc(Cl)sc12` [Compound 367]: the Emax was 99% and the IC50 was less than 50 nM.

For `C[C@H]1C[C@@]2(C[C@@H](c3cn(CC4CCC(=O)NC4)nn3)N1)OCC(F)(F)c1cc(Cl)sc12` (stereo partly drawn) [Compound 368], the Emax was determined as 96%.

In the case of `C[C@H]1C[C@@]2(C[C@@H](c3cn(CC#N)nn3)N1)OCC(F)(F)c1cc(Cl)sc12` [Compound 369], the Emax was determined as 98%.

`CC(CO)Cn1cc([C@@H]2C[C@]3(C[C@H](C)N2)OCC(F)(F)c2cc(Cl)sc23)nn1` (stereo partly drawn) [Compound 370]: the Emax stood at 99%.

`C[C@H](CO)Cn1cc([C@@H]2C[C@]3(C[C@H](C)N2)OCC(F)(F)c2cc(Cl)sc23)nn1` [Compound 371]: the IC90 fell in the range of 50 to 500 nM, the Emax came out at 99% and the IC50 was less than 50 nM.

For `COC(=O)C1([C@@H]2C[C@]3(C[C@H](C)N2)OCCc2cc(Cl)sc23)CC1` [Compound 372, methyl 1-[(2′S, 6′S, 7S)-2-chloro-6′-methyl-spiro[4,5-dihydrothieno[2,3-c]pyran-7,4′-piperidine]-2′-yl]cyclopropanecarboxylate], the Emax amounted to 92% and the IC50 is more than 500 nM.

Regarding `C[C@H]1C[C@@]2(C[C@@H](C3(N)CC3)N1)OCCc1cc(Cl)sc12` [Compound 373, 1-[(2′S,6′S,7S)-2-chloro-6′-methyl-spiro[4,5-dihydrothieno[2,3-c]pyran-7,4′-piperidine]-2′-yl]cyclopropanamine], the Emax was determined as 99% and the IC50 is less than 50 nM.

Regarding `CC(=O)NC1([C@@H]2C[C@]3(C[C@H](C)N2)OCCc2cc(Cl)sc23)CC1` [Compound 379, N-[1-[(2′S,6′S, 7S)-2-chloro-6′-methyl-spiro[4,5-dihydrothieno[2,3-c]pyran-7,4′-piperidine]-2′-yl]cyclopropyl]acetamide], the Emax turned out to be 94% and the IC50 was more than 500 nM.

As for `C[C@H]1C[C@@]2(C[C@@H](C3(CO)CC3)N1)OCCc1cc(Cl)sc12` [Compound 380, [1-[(2′S,6′S, 7S)-2-chloro-6′-methyl-spiro[4,5-dihydrothieno[2,3-c]pyran-7,4′-piperidine]-2′-yl]cyclopropyl]methanol], the Emax came to 99% and the IC50 is less than 50 nM.

`Cn1cc([C@@H]2C[C@]3(C[C@H](C4CC4)N2)OCCc2cc(Cl)sc23)nn1` [Compound 381, (2′R,6′S, 7S)-2-chloro-2′-cyclopropyl-6′-(1-methyltriazol-4-yl)spiro[4,5-dihydrothieno[2,3-c]pyran-7,4′-piperidine]] had an IC50 of less than 50 nM.

In turn, `Cn1cc([C@@H]2C[C@]3(C[C@H](C4CC4)N2)OC[C@@H](O)c2cc(Cl)sc23)nn1` [Compound 382, (2′R,4S,6′S, 7S)-2-chloro-2′-cyclopropyl-6′-(1-methyltriazol-4-yl)spiro[4,5-dihydrothieno[2,3-c]pyran-7,4′-piperidine]-4-ol] came in with an IC50 of less than 50 nM.

`Cn1cc([C@@H]2C[C@]3(C[C@H](C4CC4)N2)OCCc2cc(C(F)(F)F)sc23)nn1` [Compound 383, (2′R,6′S,7S)-2′-cyclopropyl-6′-(1-methyltriazol-4-yl)-2-(trifluoromethyl)spiro[4,5-dihydrothieno[2,3-c]pyran-7,4′-piperidine]] registered an IC50 of less than 50 nM.

Turning to `C[C@H]1C[C@@]2(C[C@@H](c3cn(C)nn3)N1)OCC(C)(O)c1cc(C(F)(F)F)sc12` (stereo partly drawn) [Compound 384, (2′S,6′S, 7S)-2′,4-dimethyl-6′-(1-methyltriazol-4-yl)-2-(trifluoromethyl)spiro[5H-thieno[2,3-c]pyran-7,4′-piperidine]-4-ol], the IC50 is less than 50 nM.

`C[C@H]1C[C@@]2(C[C@@H](c3cn(C)nn3)N1)OC[C@@H](O)c1cc(C(F)(F)F)sc12` [Compound 386, (2S,4S,4′S,6S)-2-methyl-6-(1-(methyl-^13C-d3)-1H-1,2,3-triazol-4-yl)-2′-(trifluoromethyl)-4′,5′-dihydrospiro[piperidine-4,7′-thieno[2,3-c]pyran]-5-^13C-4′-ol] yielded an IC90 of less than 50 nM and an IC50 of less than 50 nM.

By IC90 is commonly meant the concentration needed for an effect of 90%. Lower therefore signals an effect from little substance. For orientation: IC50 means the concentration that inhibits the measured activity by half. Low readings indicate greater potency in that assay, high ones weaker potency in that assay.
